Data from ChEMBL document CHEMBL3046582, “Antifeedant activity of sesquiterpenes from celastraceae” (1997).
Active and inactive are the calls of the source. The calls are words filed in the database; no cut-off is given here.

Legend:
Spodoptera littoralis [1] = assay: Antifeedant activity against newly ecdysed fifth-instar larval stage of Spodoptera littoralis in compound-pretreated lettuce leaf disks assessed as consumed area of leaf disks at 10 ug/cm'2 measured at 30 min intervals for 4-5 hr post-drug exposure by choice test; format: functional
Spodoptera littoralis [2] = assay: Antifeedant activity against newly ecdysed fifth-instar larval stage of Spodoptera littoralis in compound-pretreated lettuce leaf disks assessed as consumed area of leaf disks at 0.1 ug/cm'2 measured at 30 min intervals for 4-5 hr post-drug exposure by choice test; format: functional
Spodoptera littoralis [3] = assay: Antifeedant activity against newly ecdysed fifth-instar larval stage of Spodoptera littoralis in compound-pretreated lettuce leaf disks assessed as consumed area of leaf disks at 1 ug/cm'2 measured at 30 min intervals for 4-5 hr post-drug exposure by choice test; format: functional
Spodoptera littoralis [4] = assay: Insecticidal activity against newly ecdysed fifth-instar larval stage of Spodoptera littoralis in compound-pretreated lettuce leaf disks assessed as mortality at 3 hr post-drug exposure; format: functional
Spodoptera littoralis [5] = assay: Antifeedant activity against newly ecdysed fifth-instar larval stage of Spodoptera littoralis in compound-pretreated lettuce leaf disks assessed as consumed area of leaf disks measured at 30 min intervals for 4-5 hr post-drug exposure by choice test; format: functional, organism-based

Molecule	FR50 (Spodoptera littoralis [1])	FR50 (Spodoptera littoralis [2])	FR50 (Spodoptera littoralis [3])	LD100 (Spodoptera littoralis [4])	Activity (Spodoptera littoralis [5])
CC(=O)O[C@H]1C[C@](C)(O)[C@]23OC(C)(C)[C@H]([C@@H](OC(C)=O)[C@@H](OC(=O)c4ccccc4)[C@]2(OC(C)=O)C1)[C@H]3OC(C)=O	0.1	1.1	0.18	–	–
CC(=O)O[C@@H]1[C@H]2C[C@H](OC(=O)c3ccccc3)[C@]3(OC(C)=O)[C@@H](OC(C)=O)[C@@H](C(C)=O)CC(C)[C@@]13OC2(C)C (stereo partly specified)	0.36	–	–	–	–
CC(=O)O[C@@H]1[C@@H]2[C@@H](OC(C)=O)[C@]3(OC2(C)C)C(C)C[C@H](C(C)=O)[C@H](OC(C)=O)[C@@]3(OC(C)=O)[C@H]1OC(=O)c1ccccc1 (stereo partly specified)	0.07	–	0.53	–	–
O=C(OCC1CCCO1)c1cc([N+](=O)[O-])cc([N+](=O)[O-])c1 (stereo unspecified)	–	–	–	inactive	inactive
CC(=O)O[C@H]1CC[C@](C)(O)[C@]23OC(C)(C)[C@H](C[C@H](OC(=O)c4ccccc4)[C@]12OC(C)=O)[C@H]3OC(C)=O	0.11	0.4	0.12	–	–
OC1CCOC1 (stereo in doubt; 46)	–	–	–	inactive	inactive
CC(=O)O[C@@H]1[C@H]2C[C@H](OC(=O)c3ccccc3)[C@]3(C)[C@@H](OC(=O)c4ccccc4)[C@H](O)[C@H](C(C)=O)[C@](C)(O)[C@@]13OC2(C)C	0.56	–	–	–	–
CC(=O)O[C@H]1[C@H](OC(=O)c2ccccc2)[C@@]2(C)[C@@H](OC(=O)c3ccccc3)C[C@@H]3[C@@H](O)[C@]2(OC3(C)C)[C@@](C)(O)[C@H]1O	0.6	–	–	–	–
CC(=O)OC1CCOC1 (racemic)	–	–	–	inactive	inactive
CC(=O)OC1CCOC1 (single isomer, unassigned; (+))	–	–	–	inactive	inactive
COCCCC[C@@H]1[C@@H]2[C@@H](OC(C)=O)[C@@]3(OC2(C)C)[C@](OC(C)=O)([C@@H]1OC(=O)c1ccccc1)[C@@H](O)CC[C@]3(C)O	0.08	0.57	0.23	–	–
O=C(OCC1CCCO1)c1ccccc1 (stereo unspecified)	–	–	–	inactive	inactive
O=C(OC1CCOC1)c1ccccc1 (racemic)	–	–	–	inactive	inactive
OCC1CCCO1 (stereo unspecified)	–	–	–	inactive	inactive
TRIPHENYLSTANNYL ACETATE	0.37	–	–	–	–
CC(=O)O[C@@H]1[C@@H]2[C@@H](OC(C)=O)[C@@]3(OC2(C)C)[C@@](OC(C)=O)([C@@H](OC(C)=O)CC[C@]3(C)O)[C@@H]1OC(=O)c1ccccc1	0.03	0.64	0.2	–	–
CC(=O)O[C@@H]1[C@@H]2[C@@H](OC(C)=O)[C@]3(OC2(C)C)C(C)C[C@H](C(C)=O)[C@H](OC(C)=O)[C@@]3(O)[C@H]1OC(=O)c1ccccc1 (stereo partly specified)	0.13	–	0.71	–	–
CC(=O)O[C@H]1C[C@](C)(O)[C@]23OC(C)(C)[C@H]([C@@H](C(C)=O)[C@@H](OC(=O)c4ccccc4)[C@]2(OC(C)=O)[C@H]1OC(C)=O)[C@H]3OC(C)=O	0.05	0.4	0.24	–	–
O=C(OC1CCOC1)c1cc([N+](=O)[O-])cc([N+](=O)[O-])c1 (racemic)	–	–	–	inactive	inactive
CC(=O)O[C@H]1C[C@](C)(O)[C@]23OC(C)(C)[C@H]([C@@H](C(C)=O)[C@@H](OC(=O)c4ccccc4)[C@]2(OC(C)=O)[C@H]1OC(=O)c1ccccc1)[C@H]3OC(C)=O	0.35	–	–	–	–
CC(=O)O[C@H]1CCC(C)[C@]23OC(C)(C)[C@H]([C@@H](O)[C@H](OC(=O)c4ccccc4)[C@]12OC(C)=O)[C@H]3OC(C)=O (stereo partly specified)	0.05	–	0.25	–	–
CC(=O)O[C@@H]1[C@H]2[C@@H](OC(=O)c3ccccc3)[C@@H](OC(=O)c3ccccc3)[C@]3(OC(C)=O)[C@@H](OC(=O)c4ccccc4)CC[C@](C)(O)[C@@]13OC2(C)C	0.76	–	–	–	–
CC(=O)O[C@H]1[C@H](OC(=O)c2ccccc2)[C@@]2(C)[C@@H](OC(=O)c3ccccc3)C[C@H]3C[C@]2(OC3(C)C)[C@@](C)(O)[C@H]1O	0.61	–	–	–	–
CC(=O)O[C@@H]1[C@@H]2[C@@H](OC(C)=O)[C@@]3(OC2(C)C)[C@@](OC(C)=O)([C@@H](OC(=O)c2ccccc2)CC[C@]3(C)O)[C@@H]1OC(=O)c1ccccc1	0.24	–	0.58	–	–
CC(=O)O[C@@H]1[C@H]2C[C@H](OC(=O)c3ccccc3)[C@]3(C)[C@@H](OC(=O)c4ccccc4)[C@H](C(C)=O)C[C@](C)(O)[C@@]13OC2(C)C	0.35	–	–	–	–
CC(=O)O[C@H]1[C@@H]2[C@@H](OC(=O)c3cccnc3)[C@@]3(OC2(C)C)[C@@](C)([C@@H](OC(=O)c2ccccc2)CC[C@]3(C)O)[C@@H]1OC(C)=O	0.04	0.45	0.15	–	–

Molecule	FR50 (Spodoptera littoralis [1])	FR50 (Spodoptera littoralis [2])	FR50 (Spodoptera littoralis [3])	LD100 (Spodoptera littoralis [4])	Activity (Spodoptera littoralis [5])
C/C=C(/C)C(=O)O[C@@H]1[C@@H]2[C@@H](OC(C)=O)[C@@]3(OC2(C)C)[C@@](OC(C)=O)([C@@H](OC(=O)c2ccccc2)CC[C@]3(C)O)[C@@H]1OC(=O)c1ccccc1	0.12	–	0.29	–	–
CC(=O)O[C@H]1CC[C@](C)(O)[C@]23OC(C)(C)[C@H]([C@@H](OC(=O)c4ccccc4)[C@@H](OC(=O)c4ccccc4)[C@]12OC(C)=O)[C@H]3OC(C)=O	0.15	–	0.4	–	–
CC(=O)O[C@H]1[C@H](OC(=O)c2ccccc2)[C@@]2(C)[C@@H](OC(=O)c3ccccc3)C[C@@H]3[C@@H](OC(C)=O)[C@]2(OC3(C)C)[C@@](C)(O)[C@H]1O [2BETA,3BETA,4BETA,TRIHYDROXYCELARBICO]	0.24	–	0.44	–	–
CC(=O)O[C@H]1C[C@@H]2[C@@H](OC(=O)c3cccnc3)[C@@]3(OC2(C)C)[C@@]1(C)[C@@H](OC(=O)c1ccccc1)CC[C@]3(C)O	0.68	–	–	–	–
CC[C@@H]1CCC(=O)O[C@H]2[C@H](OC(C)=O)[C@H](OC(C)=O)[C@@]3(OC(C)=O)[C@H](OC(C)=O)C(=O)[C@@H]4[C@@H](OC(C)=O)[C@]3(O[C@@]4(C)COC(=O)c3ccccc31)[C@@]2(C)O [ORTHOSPHENINE]	–	–	–	0.01 microg/cm2	–
CC1(C)O[C@]23C[C@@H]1CC[C@]2(C)CC[C@H](O)[C@@]3(C)O	0.52	–	–	–	–
CC(=O)O[C@H]1CCC(C)[C@]23OC(C)(C)[C@H]([C@@H](C(C)=O)[C@H](OC(=O)c4ccccc4)[C@]12OC(C)=O)[C@H]3OC(C)=O (stereo partly specified)	0.04	–	0.44	–	–
CC(=O)OCC1CCCO1 (stereo unspecified)	–	–	–	inactive	inactive
OCC1CCOC1 (stereo unspecified)	–	–	–	inactive	inactive
CC(=O)O[C@@H]1[C@H]2C[C@H](OC(=O)c3ccccc3)[C@]3(O)[C@@H](OC(C)=O)[C@@H](C(C)=O)CC(C)[C@@]13OC2(C)C (stereo partly specified)	0.19	–	0.54	–	–
CCC(C)C(=O)OC (stereo in doubt; 54)	–	–	–	inactive	inactive
COCCCC[C@@H]1[C@@H]2[C@@H](OC(C)=O)[C@@]3(OC2(C)C)[C@@](OC(C)=O)([C@@H](OC(=O)c2ccccc2)CC[C@]3(C)O)[C@@H]1OC(=O)c1ccccc1	0.45	–	–	–	–
CC(=O)O[C@@H]1[C@@H](O)[C@@H]2[C@@H](OC(=O)c3cccnc3)[C@@]3(OC2(C)C)[C@@]1(C)[C@@H](OC(=O)c1ccccc1)CC[C@]3(C)O	0.74	–	–	–	–
CC(=O)O[C@H]1C[C@](C)(O)[C@]23OC(C)(C)[C@H](C(=O)[C@@H](OC(=O)c4ccccc4)[C@]2(OC(C)=O)[C@H]1OC(C)=O)[C@H]3OC(C)=O	–	–	–	1 microg/cm2	–
C/C=C(/C)C(=O)O[C@@H]1[C@@H]2[C@@H](OC(C)=O)[C@@]3(OC2(C)C)[C@@](OC(C)=O)([C@@H](OC(C)=O)CC[C@]3(C)O)[C@@H]1OC(=O)c1ccccc1	0.06	–	0.2	–	–
CC(=O)O[C@H]1[C@@H]2[C@@H](O)[C@@]3(OC2(C)C)[C@](C)([C@H]1OC(=O)c1ccccc1)[C@@H](OC(=O)c1ccccc1)[C@H](OC(C)=O)[C@H](OC(C)=O)[C@]3(C)O	0.38	–	–	–	–
CC(=O)O[C@H]1C[C@](C)(O)[C@]23OC(C)(C)[C@H]([C@@H](C(C)=O)[C@@H](OC(=O)c4ccccc4)[C@]2(OC(C)=O)[C@H]1OC(=O)c1ccccc1)[C@H]3O	0.1	1.02	0.19	–	–
CC(=O)O[C@H]1C[C@](C)(O)[C@]23OC(C)(C)[C@H](C(=O)[C@@H](OC(=O)c4ccccc4)[C@]2(OC(C)=O)[C@H]1OC(=O)c1ccccc1)[C@H]3OC(C)=O	–	–	–	0.1 microg/cm2	–
CC(=O)OCC1CCOC1 (stereo unspecified)	–	–	–	inactive	inactive
CC(=O)O[C@@H]1[C@H]2C[C@H](OC(=O)c3ccccc3)[C@]3(C)[C@@H](OC(=O)c4ccccc4)[C@H](C(C)=O)[C@H](C(C)=O)[C@](C)(O)[C@@]13OC2(C)C	0.65	–	–	–	–
CC(=O)O[C@@H]1[C@H]2C[C@H](OC(=O)c3ccccc3)[C@]3(C)[C@@H](OC(=O)c4ccccc4)[C@H](C(C)=O)[C@H](O)C(C)[C@@]13OC2(C)C (stereo partly specified)	0.63	–	–	–	–
CCC(C)C(=O)OC (single isomer, unassigned; (+))	–	–	–	inactive	inactive
CC(=O)O[C@@H]1[C@H]2C(=O)[C@@H](OC(=O)c3ccccc3)[C@]3(O)[C@@H](OC(C)=O)[C@@H](C(C)=O)CC(C)[C@@]13OC2(C)C (stereo partly specified)	0.41	–	–	–	–
CC(=O)O[C@@H]1[C@@H]2[C@@H](OC(C)=O)[C@@]3(OC2(C)C)[C@](O)([C@@H]1OC(=O)c1ccccc1)[C@@H](OC(C)=O)[C@@H](C(C)=O)C[C@]3(C)O	0.16	–	0.66	–	–
OC1CCOC1 (racemic)	–	–	–	inactive	inactive
CC(=O)O[C@H]1[C@H](OC(=O)c2ccccc2)[C@@]2(C)[C@@H](O/C=C/c3ccccc3)C[C@@H]3[C@@H](OC(C)=O)[C@]2(OC3(C)C)[C@@](C)(O)[C@H]1O	0.76	–	–	–	–
